In patent US20110218212A1, “PREDICTIVE MARKERS FOR EGFR INHIBITORS TREATMENT” (priority 2007, published 2011):
Where two headings read alike, the source gives them in different places.

Experiments:
advanced NSCLC = experiment: open-label predictive marker identification Phase II study of Tarceva monotherapy; type: in vivo, human; conditions: 264 enrolled patients, 150 mg/day oral
Description: Based on the experience from the BR.21 study, benefiting population was defined as either having objective response, or disease stabilization for ≧12 weeks. Clinical and microarray datasets were analyzed according to a pre-defined statistical plan.
The selection of this dose was based on pharmacokinetic parameters, as well as the safety and tolerability profile of this dose observed in Phase I, II and III trials in heavily pre-treated patients with advanced cancer. Drug levels seen in the plasma of patients with cancer receiving the 150 mg/day dose were consistently above the average plasma concentration of 500 ng/ml targeted for clinical efficacy.
This was an open-label, predictive marker identification Phase II study. The study was conducted in approximately 26 sites in about 12 countries. 264 patients with advanced NSCLC following failure of at least one prior chemotherapy regimen were enrolled over a 12 month period. […] Dose reductions were permitted based on tolerability to drug therapy. Clinical and laboratory parameters were assessed to evaluate disease control and toxicity. Treatment continued until disease progression, unacceptable toxicity or death.
The RECIST (Uni-dimensional Tumour Measurement) criteria were used to evaluate response. […]
A regular status check every 3 months was performed either by a patient's visit to the clinic or by telephone. All deaths were recorded. […]

NSCLC [1] = conditions: single agent, patients for whom standard therapy for advanced disease has failed, versus placebo; cited from earlier work
[2] = patients with cancer, 150 mg/day dose; compared with average plasma concentration targeted for clinical efficacy; cited from earlier work
NSCLC [3] = conditions: cited from earlier work
NSCLC [4] = conditions: second line therapy of NSCLC; cited from earlier work

## C#Cc1cccc(Nc2ncnc3cc(OCCOC)c(OCCOC)cc23)c1 [Erlotinib]
Advanced NSCLC
  median overall survival: 7.6 (CI 7-9) months
  median progression-free survival: 11.3 (CI 8-12) weeks
NSCLC [1]
  survival of NSCLC patients: significantly prolongs and improves the survival
[2]
  drug levels in plasma: > 500 ng/mL

## CC(=O)O[C@@]12CO[C@@H]1C[C@H](O)[C@@]1(C)C(=O)[C@H](O)C3=C(C)[C@@H](OC(=O)[C@H](O)[C@@H](NC(=O)OC(C)(C)C)c4ccccc4)C[C@@](O)([C@@H](OC(=O)c4ccccc4)[C@H]21)C3(C)C [docetaxel]
NSCLC [3]; second line after cisplatin-based first-line regimens failed, all ages, ECOG performance status 0, 1 or 2
  survival: improved survival
NSCLC [3]; third-line treatment or beyond
  survival: no prolongation of survival

## Nc1nc2[nH]cc(CCc3ccc(C(=O)N[C@@H](CCC(=O)O)C(=O)O)cc3)c2c(=O)[nH]1 [pemetrexed]
NSCLC [4]
  efficacy compared with docetaxel: clinically equivalent efficacy
  side effects compared with docetaxel: significantly fewer side effects
